Experimental data as given in publication PMC6143625, “A high throughput screen for next-generation leads targeting malaria parasite transmission” (Nature Communications, 2018).

Key:
[1] = system: P. falciparum stage V male gametocytes (male gamete formation); assay: P. falciparum dual gamete formation assay (Pf DGFA), male readout (exflagellation), 48 h carry-over format; type: cell-based, Plasmodium falciparum NF54; details: for %Inhibition Male @2uM: primary screen, 48 h incubation, single replicate; for Male IC50 / IC50: SAR, Fig. 6 and Fig. 7; for IC50: Plasmodium falciparum, read-out: Male IC50; for Selectivity: parasite selectivity compared to Tox50 in HepG2 cells
Experimental: (§1) P. falciparum NF54 strain (originally isolated from an imported malaria case in the Netherlands in the 1980s; BEI Resources, cat. no. MRA-1000) asexual and sexual stages culture was performed as previously described. Gametocyte cultures were initiated at 1% asexual ring stage parasitaemia and 4% haematocrit in 40 ml final volume. To induce gametocyte production, complete culture medium (CM) (RPMI 1640 supplemented with 25 mM HEPES, 50 µg ml^−1 hypoxanthine, 2 g l^−1 NaHCO3 and 10% pooled human male type A+ serum) was replaced daily for 14 days without fresh erythrocyte addition. Human serum was obtained from Interstate Blood Bank, A^+ serotype; no aspirin 2 h before drawing and no antimalarials 2 weeks before drawing. On day 14 after culture induction, gametocyte production was assessed by thin smear and Giemsa staining, and exflagellation accurately counted in a haemocytometer. Gametocyte cultures with >0.2% exflagellation (compared to total erythrocyte cell number) were deemed acceptable for use in the Pf DGFA. Note, all human biological samples were sourced ethically and their research use was in accord with the terms of the informed consents under an IRB/EC approved protocol.
(§2) In screening mode, the assay was performed as described in Delves et al.[35] with a mean Z′ factor of 0.56 ± 0.14 (SD) (male) and 0.71 ± 0.17 (SD) (female). Pooled mature gametocyte cultures with the capacity to yield >0.2% exflagellation (of total cells) were diluted in CM to 14 million cells per ml and so that 700,000 cells were dispensed in 50 µl into each well of the warmed 384-well screening plates. Parasites were incubated in the plates with compounds for 48 h in a humidified chamber under 92%N2/5% CO2/3% O2 gas mix before gamete formation was triggered by addition of 10 µl per well ookinete medium (RPMI 1640 supplemented with 25 mM HEPES, 50 µg ml^−1 hypoxanthine, 2 g l^−1 NaHCO3, 100 µM xanthurenic acid) containing 0.5 µg ml^−1 anti-Pfs25 clone 4B7 (BEI Resources, cat. no. MRA-315) conjugated to the fluorophore Cy3 (GE Healthcare), and also by cooling the plate at 4 °C for 4 min and then a further 5 min at 28 °C. Exflagellation was recorded immediately by brightfield microscopy using a Nikon Ti-E widefield microscope at ×4 objective, ×1.5 zoom, recording a 10-frame video time-lapse over 2 s for each well. Afterwards, plates were incubated in the dark at 28 °C for a further 24 h to allow female gametes to maximally express Pfs25 on their surface. Female gamete formation was recorded by single-image fluorescence microscopy using the same microscope and magnification as above. Exflagellation and female gamete formation were quantified by specific algorithms designed with the open-source ICY Image Analysis software.
(§3) Assay performance statistics, such as signal to background ratio, Z′ and robust 3×SD activity cut-off were calculated using templates in ActivityBase XE (IDBS, Guilford, Surrey, UK). Hit population analysis and visualisation were conducted using Spotfire DecisionSite (Spotfire, Inc., Somerville, Massachusetts). The pIC50 (−log IC50) values were obtained using the ActivityBase XE nonlinear regression function in the full curve analysis bundle. In screening mode, the Pf DGFA achieved a mean Z′ factor of 0.56 ± 0.14 (SD) (male) and 0.71 ± 0.17 (SD) (female).

[2] = system: P. falciparum stage V female gametocytes (female gamete formation); assay: P. falciparum dual gamete formation assay (Pf DGFA), female readout (Pfs25 expression), 48 h carry-over format; type: cell-based, Plasmodium falciparum NF54; details: primary screen, 2 uM, 48 h incubation, single replicate
Experimental: as §1
as §2, with “Parasites were incubated in the plates with compounds for 48 h in a humidified chamber under” left out
as §3

Male IC50 [1]	IC50 [1]	SMILES	%Inhibition Male @2uM [1]	%Inhibition Female @2uM [2]	Selectivity [1]
		Cc1ccc(-c2noc(C(C)NS(C)(=O)=O)n2)cc1 (stereo not drawn) [DDD01025633]	37.79%	<30%	
		Cc1ccc(C(=O)N2CC[C@@]3(O)CCCC[C@H]3C2)cc1 [DDD01026498]	<30%	36.05%	
		Cn1c(CN2CCCCCC2)cc(=O)c(O)c1CN1CCCC1 [DDD01027184]	31.50%	<30%	
		NC(=O)Cn1c(CO)cnc1SCc1ccccc1Cl [DDD01027486]	<30%	30.58%	
		O=C(Nc1ncnc2c1CCC2)c1cccc(F)c1 [DDD01027506]	<30%	33.11%	
		COCCc1nnc(NC(=O)CSCc2ccccc2)o1 [DDD01027773]	33.86%	<30%	
		O=S(=O)(c1ccccc1Br)N1CCC2(CC1)OCCS2 [DDD01027971]	<30%	31.22%	
		C1CCN(c2nc(N3CCOCC3)nc3n[nH]nc23)CC1 [DDD01027997]	<30%	37.52%	
		Cc1cccc(CS(=O)(=O)NCc2nn(C)c3c2COCC3)c1 [DDD01028624]	<30%	40.92%	
		CNC(=O)[C@@H]1COC[C@H]2CN(C(=O)c3ccc(OC)cc3)C[C@H]21 [DDD01030727]	<30%	30.90%	
		Cc1cnc(N2CCC[C@@H]3CN(CC(=O)N(C)C)C[C@@H]32)nc1 [DDD01031282]	<30%	34.01%	
		O=C(Cc1ccsc1)N1C[C@@H]2OCCN(c3cnccn3)[C@@H]2C1 [DDD01031297]	<30%	38.82%	
		CCn1ncc2c1C(COC)N(C(=O)c1ccc3c(c1)OCO3)CC2 (stereo not drawn) [DDD01031312]	<30%	34.92%	
		COCCN1CCO[C@@H]2CN(C(=O)NCc3cccnc3)CC[C@@H]2C1 [DDD01031413]	<30%	31.80%	
		c1cc(CNCC2Cn3nncc3CO2)co1 (stereo not drawn) [DDD01031485]	<30%	38.17%	
		Cc1ccc(CN2CCCC3(CCN(Cc4ccoc4)CC3)C2)cc1 [DDD01031609]	<30%	33.18%	
		Cc1ccc(N2CC[C@@H]3[C@@H]2CCN3C(=O)c2cscn2)nn1 [DDD01031738]	<30%	32.44%	
		CN1CCN(C(=O)c2cc3c(s2)CCN3C(=O)C2CC2)CC1 [DDD01031830]	<30%	50.73%	
		CO[C@H]1CC[C@H]2[C@H]1OCCN2Cc1ccc(F)c(F)c1 [DDD01032445]	37.39%	<30%	
		O=C(O)c1nnn(-c2cc(F)cc(F)c2)c1-c1ccncc1 [DDD01034739]	<30%	37.18%	
		Cc1cc2c(cc1NC(N)=O)OCO2 [DDD01037848]	<30%	32.47%	
		O=C(NCc1ccco1)c1[nH]nc2c1CS(=O)(=O)CC2 [DDD01037866]	48.15%	<30%	
		CCn1nc(C)c2nc(C)nc(NCCc3ccccc3)c21 [DDD01038123]	<30%	30.36%	
		CCn1cc(CN2CCN(C(=O)c3cc(C)c(C)s3)CC2)c(C)n1 [DDD01038373]	<30%	36.25%	
		CCN1CCN(C(=O)C2CC(=O)N(c3cnn(C(C)C)c3)C2)CC1 (stereo not drawn) [DDD01038633]	42.61%	<30%	
		Cc1ccc2c(c1)c(C)cc(=O)n2CCCN [DDD01038649]	<30%	33.62%	

Male IC50 [1]	IC50 [1]	SMILES	%Inhibition Male @2uM [1]	%Inhibition Female @2uM [2]	Selectivity [1]
		COc1ccc(NC(=O)c2cnc(C3CCN(C)CC3)nc2C)cc1 [DDD01056828]	33.07%	<30%	
Inactive		CC(=O)Nc1ccc(Br)cc1 [compound 7683]			
	2.41 µM	O=C(CCl)Nc1ccccc1 [compound 11485]			21
	3.39 µM	Cc1ccc(NC(=O)CCl)cc1 [compound 27967]			15
	2.21 µM	COc1cccc(NC(=O)CCl)c1 [compound 28667]			14
	2.66 µM	COc1ccc(NC(=O)CCl)cc1 [compound 31123]			24
	6.41 µM	CN(C(=O)CCl)c1ccccc1 [compound 75797]			2
	10.4 µM	Cc1ccccc1NC(=O)CCl [compound 101479]			10
	1.63 µM	O=C(CCl)N1CCc2ccccc21 [compound 176897]			8
	11.2 µM	O=C(CCl)Nc1ccccc1Cl [compound 222444]			7
	4.03 µM	O=C(CCl)Nc1ccc(Cl)cc1Cl [compound 225998]			21
	1.95 µM	O=C(CCl)Nc1ccc(O)cc1 [compound 236323]			> 51
	5.84 µM	Cc1cc(Cl)ccc1NC(=O)CCl [compound 249708]			> 17
	4.5 µM	Cc1cccc(NC(=O)CCl)c1 [compound 296325]			18
Inactive		O=C(CCl)Nc1ccccc1O [compound 350567]			
Inactive		O=C(Nc1ccc(Br)cc1)C(Cl)Cl [compound 532122]			
Inactive		O=C1C(Cl)=C(Cl)C(=O)N1c1ccc(Br)cc1 [compound 779209]			
	5.25 µM	N#Cc1ccccc1NC(=O)CCl [compound 819001]			> 19
Inactive		NCC(=O)Nc1ccc(Br)cc1 [compound 871334]			
	3.26 µM	O=C(CCl)Nc1ccccc1F [compound 1522874]			> 31
	4.77 µM	Cc1cc(Br)ccc1NC(=O)CCl [compound 2097895]			4
	12.1 µM	CC(C)c1cc(Br)ccc1NC(=O)CCl [compound 4066920]			2
Inactive		Cc1cc(Br)ccc1NC(=O)CCCCl [compound 19226390]			
	2.08 µM	O=C(CCl)Nc1ccc(CO)cc1 [compound 22457525]			> 48
Inactive		COC(=O)Nc1ccc(NC(=O)CCl)cc1 [compound 43701226]			

SMILES	Male IC50 [1]	IC50 [1]	%Inhibition Male @2uM [1]	%Inhibition Female @2uM [2]	Selectivity [1]
O=C(Nc1ccc(Br)cc1Cl)C(Cl)(Cl)Cl [compound 2725563]	Inactive				
